The record followed here is ChEMBL document CHEMBL5291721, “A preclinical secondary pharmacology resource illuminates target-adverse drug reaction associations of marketed drugs” (Nat Commun, 2023).

The target in experiment [1] is T1, 5-hydroxytryptamine receptor 1A (Homo sapiens, UniProt P08908).
T1 sequence (P08908 whole entry): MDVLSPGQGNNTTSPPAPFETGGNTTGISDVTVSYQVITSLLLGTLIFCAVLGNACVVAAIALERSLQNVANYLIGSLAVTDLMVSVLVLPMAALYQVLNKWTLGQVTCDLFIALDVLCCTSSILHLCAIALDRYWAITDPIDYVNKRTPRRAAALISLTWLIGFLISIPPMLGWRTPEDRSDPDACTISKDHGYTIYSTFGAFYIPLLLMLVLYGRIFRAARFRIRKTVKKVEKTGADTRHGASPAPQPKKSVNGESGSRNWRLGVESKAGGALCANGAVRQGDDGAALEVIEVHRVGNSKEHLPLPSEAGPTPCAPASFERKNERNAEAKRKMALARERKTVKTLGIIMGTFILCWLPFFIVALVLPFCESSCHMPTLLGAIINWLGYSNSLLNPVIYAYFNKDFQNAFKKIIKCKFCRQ

Experiment [2] concerns the target T2, Adenosine receptor A3 (Homo sapiens, UniProt P0DMS8).
T2 sequence (P0DMS8 whole entry): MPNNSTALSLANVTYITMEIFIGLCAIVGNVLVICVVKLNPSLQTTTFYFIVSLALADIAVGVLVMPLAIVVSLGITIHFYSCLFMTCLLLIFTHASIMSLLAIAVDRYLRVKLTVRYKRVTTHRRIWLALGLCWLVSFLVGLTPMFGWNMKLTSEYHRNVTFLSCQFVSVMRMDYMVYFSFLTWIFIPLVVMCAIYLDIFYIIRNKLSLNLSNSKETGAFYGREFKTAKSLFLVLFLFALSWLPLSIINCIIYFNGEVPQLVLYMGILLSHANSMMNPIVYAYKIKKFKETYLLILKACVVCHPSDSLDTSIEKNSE

Experiment [3] concerns the target Sodium-dependent dopamine transporter (Homo sapiens, UniProt Q01959).
Experiment [4] concerns the target T3, Thromboxane A2 receptor (Homo sapiens, UniProt P21731).
T3 sequence (P21731 whole entry): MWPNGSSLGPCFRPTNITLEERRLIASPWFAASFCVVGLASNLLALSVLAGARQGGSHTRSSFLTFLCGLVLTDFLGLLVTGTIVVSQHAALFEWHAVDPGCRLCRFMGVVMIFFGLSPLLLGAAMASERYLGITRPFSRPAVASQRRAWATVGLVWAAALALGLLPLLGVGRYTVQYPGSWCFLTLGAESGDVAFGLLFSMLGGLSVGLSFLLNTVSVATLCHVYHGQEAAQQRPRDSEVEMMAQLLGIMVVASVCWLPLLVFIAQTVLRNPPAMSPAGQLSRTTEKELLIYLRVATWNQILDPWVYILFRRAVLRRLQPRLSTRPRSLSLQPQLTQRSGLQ

Experiment [5] has as its target Mu-type opioid receptor (Homo sapiens, UniProt P35372).
Experiment [6] addresses D(1A) dopamine receptor (Homo sapiens, UniProt P21728).
The target in experiment [7] is T4, Alpha-1A adrenergic receptor (Homo sapiens, UniProt P35348).
T4 sequence (P35348 whole entry): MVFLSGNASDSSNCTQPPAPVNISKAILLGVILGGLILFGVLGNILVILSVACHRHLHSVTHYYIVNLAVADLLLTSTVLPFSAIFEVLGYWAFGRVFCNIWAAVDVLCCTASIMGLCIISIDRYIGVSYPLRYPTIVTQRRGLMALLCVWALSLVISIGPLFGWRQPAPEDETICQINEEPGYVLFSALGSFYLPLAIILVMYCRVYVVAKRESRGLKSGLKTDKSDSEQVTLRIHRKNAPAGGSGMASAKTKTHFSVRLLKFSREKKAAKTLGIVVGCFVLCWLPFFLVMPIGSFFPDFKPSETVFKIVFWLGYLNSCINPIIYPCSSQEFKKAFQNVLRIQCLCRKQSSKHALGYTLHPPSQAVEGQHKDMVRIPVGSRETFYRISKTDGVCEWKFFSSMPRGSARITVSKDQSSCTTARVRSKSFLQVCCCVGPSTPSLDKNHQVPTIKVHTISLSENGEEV
It counts as functional, cell-based.

Experiment [8] concerns the target Histamine H3 receptor (Homo sapiens, UniProt Q9Y5N1).
In experiment [9] the target is Cannabinoid receptor 1 (Homo sapiens, UniProt P21554).
Cannabinoid receptor 1, sequence (P21554 whole entry): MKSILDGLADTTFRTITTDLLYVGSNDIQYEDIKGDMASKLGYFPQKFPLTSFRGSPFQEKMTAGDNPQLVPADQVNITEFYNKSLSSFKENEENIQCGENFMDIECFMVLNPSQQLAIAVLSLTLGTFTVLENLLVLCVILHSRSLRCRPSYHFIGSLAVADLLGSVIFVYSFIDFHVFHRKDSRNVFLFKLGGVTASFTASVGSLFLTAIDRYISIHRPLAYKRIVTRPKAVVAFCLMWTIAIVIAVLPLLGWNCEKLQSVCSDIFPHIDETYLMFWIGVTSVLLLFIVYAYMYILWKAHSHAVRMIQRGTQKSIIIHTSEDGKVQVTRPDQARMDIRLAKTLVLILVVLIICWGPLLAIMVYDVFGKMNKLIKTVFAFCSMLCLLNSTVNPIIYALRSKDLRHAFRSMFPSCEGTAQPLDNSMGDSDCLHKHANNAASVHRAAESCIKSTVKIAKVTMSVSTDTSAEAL
The target of experiment [10] is T5, Amine oxidase [flavin-containing] A (Homo sapiens, UniProt P21397).
T5 sequence (P21397 whole entry): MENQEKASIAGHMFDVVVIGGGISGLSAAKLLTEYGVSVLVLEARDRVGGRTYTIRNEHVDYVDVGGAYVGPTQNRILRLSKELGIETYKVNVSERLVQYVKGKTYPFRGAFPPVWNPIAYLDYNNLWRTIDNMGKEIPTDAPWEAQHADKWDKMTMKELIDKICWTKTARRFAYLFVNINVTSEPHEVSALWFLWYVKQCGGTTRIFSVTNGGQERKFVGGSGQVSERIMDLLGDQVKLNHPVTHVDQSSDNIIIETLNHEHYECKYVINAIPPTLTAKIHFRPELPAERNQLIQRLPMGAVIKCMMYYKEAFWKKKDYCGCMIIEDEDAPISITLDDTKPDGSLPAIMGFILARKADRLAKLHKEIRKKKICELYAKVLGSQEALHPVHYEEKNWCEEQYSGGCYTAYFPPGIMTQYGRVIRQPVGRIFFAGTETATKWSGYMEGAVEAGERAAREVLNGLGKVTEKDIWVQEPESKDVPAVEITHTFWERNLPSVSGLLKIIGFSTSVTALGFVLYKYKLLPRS
It counts as functional.

Experiment [11] addresses T6, Neuropeptide Y receptor type 1 (Homo sapiens, UniProt P25929).
T6 sequence (P25929 whole entry): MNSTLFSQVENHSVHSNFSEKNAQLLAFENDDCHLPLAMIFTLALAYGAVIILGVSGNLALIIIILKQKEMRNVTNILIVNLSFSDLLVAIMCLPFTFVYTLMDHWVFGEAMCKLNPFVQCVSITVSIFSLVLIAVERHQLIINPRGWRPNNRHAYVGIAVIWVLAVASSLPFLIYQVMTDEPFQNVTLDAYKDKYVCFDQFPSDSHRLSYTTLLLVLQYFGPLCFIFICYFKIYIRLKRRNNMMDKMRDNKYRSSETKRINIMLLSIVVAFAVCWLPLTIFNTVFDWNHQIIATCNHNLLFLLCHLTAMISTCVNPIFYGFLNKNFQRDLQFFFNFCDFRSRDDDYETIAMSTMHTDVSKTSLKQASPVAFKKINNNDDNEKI

The target in experiment [12] is 5-hydroxytryptamine receptor 2A (Homo sapiens, UniProt P28223). In kind it is functional, cell-based.
5-hydroxytryptamine receptor 2A, sequence (P28223 whole entry): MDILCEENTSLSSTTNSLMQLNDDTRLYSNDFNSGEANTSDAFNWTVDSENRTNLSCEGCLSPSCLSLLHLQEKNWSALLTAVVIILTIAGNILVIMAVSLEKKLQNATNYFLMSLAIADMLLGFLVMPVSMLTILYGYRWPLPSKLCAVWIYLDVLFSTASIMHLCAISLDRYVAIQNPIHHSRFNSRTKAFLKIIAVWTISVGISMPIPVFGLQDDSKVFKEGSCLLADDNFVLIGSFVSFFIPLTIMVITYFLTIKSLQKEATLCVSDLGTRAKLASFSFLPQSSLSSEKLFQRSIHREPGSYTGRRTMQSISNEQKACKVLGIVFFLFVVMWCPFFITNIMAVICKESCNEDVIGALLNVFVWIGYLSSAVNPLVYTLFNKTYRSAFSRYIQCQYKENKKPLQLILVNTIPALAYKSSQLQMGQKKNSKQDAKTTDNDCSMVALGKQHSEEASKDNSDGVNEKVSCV

A value given as a limit tells only on which side of the number the result lay.
Note: assay procedure not described here.

Mu-type opioid receptor, sequence (P35372 whole entry): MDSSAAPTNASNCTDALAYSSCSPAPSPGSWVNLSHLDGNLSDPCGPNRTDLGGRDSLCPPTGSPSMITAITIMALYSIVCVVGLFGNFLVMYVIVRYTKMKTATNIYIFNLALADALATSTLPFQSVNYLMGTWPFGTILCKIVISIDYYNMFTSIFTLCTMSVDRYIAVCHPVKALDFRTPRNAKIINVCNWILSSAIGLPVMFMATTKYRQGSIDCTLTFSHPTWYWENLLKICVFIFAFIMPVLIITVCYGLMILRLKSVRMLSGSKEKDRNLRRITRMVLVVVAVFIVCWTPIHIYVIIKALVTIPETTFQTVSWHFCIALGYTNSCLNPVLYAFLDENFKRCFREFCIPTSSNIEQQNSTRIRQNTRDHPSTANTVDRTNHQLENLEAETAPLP
Histamine H3 receptor, sequence (Q9Y5N1 whole entry): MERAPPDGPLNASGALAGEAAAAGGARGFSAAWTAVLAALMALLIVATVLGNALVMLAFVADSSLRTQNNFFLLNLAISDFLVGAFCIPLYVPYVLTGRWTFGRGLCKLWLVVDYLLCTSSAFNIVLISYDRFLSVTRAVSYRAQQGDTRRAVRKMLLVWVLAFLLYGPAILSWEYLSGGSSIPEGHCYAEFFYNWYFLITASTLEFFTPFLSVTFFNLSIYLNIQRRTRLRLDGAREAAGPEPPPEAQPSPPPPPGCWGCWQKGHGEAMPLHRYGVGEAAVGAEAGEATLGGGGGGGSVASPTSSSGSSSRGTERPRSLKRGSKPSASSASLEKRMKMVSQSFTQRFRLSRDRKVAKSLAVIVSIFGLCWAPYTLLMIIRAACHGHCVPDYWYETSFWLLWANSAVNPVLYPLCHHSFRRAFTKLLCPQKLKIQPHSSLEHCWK
D(1A) dopamine receptor, sequence (P21728 whole entry): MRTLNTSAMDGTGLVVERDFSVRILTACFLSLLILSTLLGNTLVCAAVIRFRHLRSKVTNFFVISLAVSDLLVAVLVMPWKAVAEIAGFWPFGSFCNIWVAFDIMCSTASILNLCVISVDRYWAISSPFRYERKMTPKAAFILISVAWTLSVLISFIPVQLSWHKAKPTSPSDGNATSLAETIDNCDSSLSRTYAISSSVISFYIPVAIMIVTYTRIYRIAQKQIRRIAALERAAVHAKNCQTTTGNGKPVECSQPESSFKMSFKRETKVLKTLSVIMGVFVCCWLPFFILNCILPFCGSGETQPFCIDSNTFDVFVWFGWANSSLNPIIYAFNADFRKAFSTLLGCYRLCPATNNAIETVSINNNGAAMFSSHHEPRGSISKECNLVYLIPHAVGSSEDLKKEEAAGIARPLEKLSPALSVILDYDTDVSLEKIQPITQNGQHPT
Sodium-dependent dopamine transporter, sequence (Q01959 whole entry): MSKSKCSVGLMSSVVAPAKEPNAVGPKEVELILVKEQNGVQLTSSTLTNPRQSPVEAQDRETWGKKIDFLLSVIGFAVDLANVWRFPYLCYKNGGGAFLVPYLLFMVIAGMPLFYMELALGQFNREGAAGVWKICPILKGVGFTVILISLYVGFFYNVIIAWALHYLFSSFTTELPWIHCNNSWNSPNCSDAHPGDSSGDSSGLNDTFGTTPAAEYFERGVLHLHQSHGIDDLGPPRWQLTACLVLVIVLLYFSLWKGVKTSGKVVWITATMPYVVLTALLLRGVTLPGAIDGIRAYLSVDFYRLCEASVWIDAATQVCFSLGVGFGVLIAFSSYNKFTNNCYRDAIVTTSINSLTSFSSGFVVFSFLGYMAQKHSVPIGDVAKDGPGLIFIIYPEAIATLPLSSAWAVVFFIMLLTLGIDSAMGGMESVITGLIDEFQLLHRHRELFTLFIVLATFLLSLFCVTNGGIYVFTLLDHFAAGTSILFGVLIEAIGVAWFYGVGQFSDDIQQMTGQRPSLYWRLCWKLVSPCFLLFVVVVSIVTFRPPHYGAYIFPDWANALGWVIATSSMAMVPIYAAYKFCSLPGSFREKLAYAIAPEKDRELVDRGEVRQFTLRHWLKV

The AC50 is the concentration giving half of the maximal activity seen. As to `CCOC(=O)[C@H](CCc1ccccc1)N[C@@H](C)C(=O)N1Cc2ccccc2C[C@H]1C(=O)O`, the AC50 in [1], in experiment [2], in experiment [3], in experiment [4], in [5] and in [6] was more than 30 µM each time. The AC50 in [7] is more than 30 µM; in experiment [8], more than 10 µM; in [9], more than 10 µM; in experiment [10], more than 30 µM; in experiment [11], more than 30 µM.
With `C=CC1=C(C(=O)O)N2C(=O)[C@@H](NC(=O)/C(=N\O)c3csc(N)n3)[C@H]2SC1`, the AC50 was more than 30 µM in experiment [4]; more than 30 µM in experiment [7]; more than 30 µM in [12]; more than 10 µM in experiment [8]; 15.8 µM in experiment [9]; more than 30 µM in [11].
For the compound `CN(C)CCC=C1c2ccccc2CCc2ccccc21` [AMITRIPTYLINE], the AC50 in [1] was 0.337 µM; in experiment [2], more than 30 µM; in experiment [3], 7.42 µM; in experiment [4], more than 30 µM; in experiment [5] it was 9.46 µM; in experiment [7], 0.12 µM. Besides, the AC50 in [8] was 24 µM; in experiment [9], more than 10 µM; in experiment [10] it was more than 30 µM; in experiment [11], more than 30 µM.
Regarding `CC(=O)Oc1ccccc1C(=O)O` [ASPIRIN], the AC50 in experiment [1], in experiment [2], in experiment [3], in experiment [4], in [5] and in experiment [6] was more than 30 µM throughout. Also, the AC50 was more than 30 µM in [7]; more than 30 µM in [8]; more than 10 µM in [9]; more than 30 µM in experiment [10]; more than 30 µM in experiment [11].
In the case of `CC(C)C[C@H](NC(=O)[C@H](Cc1ccccc1)NC(=O)c1cnccn1)B(O)O` [BORTEZOMIB], the AC50 in experiment [4], in experiment [12], in experiment [8], in [9] and in experiment [11] was more than 30 µM each time.
As for `CCN(CC)CCn1c(=O)c(Cc2ccc(OC)cc2)nc2ccccc21` [CAROVERINE], the concentration at half-maximal activity (AC50) in experiment [4] was more than 30 µM; in experiment [7] it was more than 30 µM; in experiment [12], 9.7 µM; in experiment [8] it was 2.38 µM; in experiment [9], more than 30 µM; in experiment [11], more than 30 µM.
With `CN(C)CCCC1(c2ccc(F)cc2)OCc2cc(C#N)ccc21` (centres undefined) [CITALOPRAM], the AC50 in [2] was more than 30 µM; in experiment [4], more than 30 µM; in [8], more than 10 µM; in [9], more than 10 µM; in [10], more than 30 µM; in [11] it was more than 30 µM.
For `C[C@]12CCC(=O)C=C1CC[C@H]1[C@@H]3CC[C@](O)(C(=O)CO)[C@@]3(C)C[C@H](O)[C@@]12F` [FLUDROCORTISONE], the AC50 is more than 30 µM in [4]; more than 30 µM in experiment [7]; more than 30 µM in [12]; more than 10 µM in [8]; more than 10 µM in [9]; more than 30 µM in [11].
For the compound `NCC1(CC(=O)O)CCCCC1` [GABAPENTIN], the AC50 in [1], in experiment [2], in [3], in [4], in experiment [5] and in [6] was more than 30 µM throughout. For the same compound, the AC50 is more than 30 µM in experiment [7]; more than 30 µM in [8]; more than 10 µM in experiment [9]; more than 30 µM in experiment [10]; more than 30 µM in experiment [11].
For the compound `OCCOCCN1CCN(C(c2ccccc2)c2ccc(Cl)cc2)CC1` (centres undefined) [HYDROXYZINE], the AC50 in experiment [4] is more than 30 µM; in experiment [7], 9.67 µM; in experiment [12] it was 6 µM; in experiment [8], more than 10 µM; in experiment [9] it was more than 10 µM; in experiment [11], more than 30 µM.
With `Nc1nnc(-c2cccc(Cl)c2Cl)c(N)n1` [LAMOTRIGINE], the AC50 in [4] was more than 30 µM; in experiment [7], more than 30 µM; in experiment [8], more than 10 µM; in experiment [9] it was more than 10 µM; in experiment [11] it was more than 30 µM.
In the case of `CNC1(C)C2CCC(C2)C1(C)C` (centres undefined) [MECAMYLAMINE], the AC50 in [4], in [12], in [9] and in [11] was more than 10 µM throughout.
Turning to `CC(=O)SCC(Cc1ccccc1)C(=O)NCC(=O)OCc1ccccc1` (centres undefined) [RACECADOTRIL], the AC50 was more than 30 µM in experiment [4]; more than 30 µM in [12]; more than 30 µM in [8]; more than 10 µM in experiment [9]; more than 30 µM in [11].
In the case of `CCOc1ccccc1OCCN[C@H](C)Cc1ccc(OC)c(S(N)(=O)=O)c1` [TAMSULOSIN], the AC50 is more than 30 µM in experiment [4]; more than 30 µM in experiment [12]; more than 10 µM in [8]; more than 10 µM in experiment [9]; more than 30 µM in experiment [11].
Consider `C[C@H](Cn1cnc2c(N)ncnc21)OCP(=O)(O)O` [TENOFOVIR ANHYDROUS], for which the AC50 in experiment [4], in experiment [7], in experiment [12], in experiment [8], in experiment [9] and in [11] was more than 30 µM in each case.
With `Cc1c(C)c2c(c(C)c1O)CCC(C)(COc1ccc(CC3SC(=O)NC3=O)cc1)O2` (centres undefined) [TROGLITAZONE], the AC50 in [1] was 25.7 µM; in experiment [2], 3.29 µM; in experiment [3] it was 8.75 µM; in experiment [4], more than 30 µM; in [5], 14 µM; in [6], 8.59 µM. The AC50 in experiment [7], in [8], in experiment [9], in [10] and in [11] was more than 30 µM each time.
